Values joined by “and” are separate entries in the source; they are usually repeats but may differ in a detail not shown here. Identical values can stand only once.
Assays:
[1] = tested on: patients with PD and constipation; assay: Stage 2 bowel function, stool related indices; format: in vivo, human; conditions: Stage 2, fixed dose, n = 34
Method: Following successful screening, all subjects underwent a 14-day run-in period where the degree of constipation was assessed through a validated daily log (Zinsmeister et al., 2013) establishing baseline CSBMs/week. Subjects with an average of <3 CSBMs/week proceeded to dosing.
In Stage 2, 34 patients were evaluated.
The primary efficacy outcome variable was whether or not a subject was a “success” or “failure.” This is an endpoint based on subject diary entries for the “fixed dose” period prior to the endpoint assessment defined as average complete stool frequency increase by 1 or more over baseline, or 3 or more complete spontaneous stools/week. The subject was deemed a “success” if s/he met one or more of the criteria listed above, otherwise the subject was deemed a “failure.” The primary analysis was based on all subjects with a baseline assessment and an assessment at the end of the “fixed-dose” period and was a comparison of the proportion of successes with 0.10 (the null hypothesis corresponding to no treatment effect).

αS = αS (Homo sapiens, UniProt P37840); conditions: in vitro; cited from earlier work
[2] = Phase 2 trial Stage 1, adverse events; format: in vivo, human; conditions: Stage 1 (10 dosed), single oral doses
From the text: Tolerability limits included diarrhea or vomiting.

CC(C)[C@@H](CC[C@@H](C)[C@H]1CC[C@H]2[C@@H]3[C@H](O)C[C@H]4C[C@@H](NCCCNCCCCN)CC[C@]4(C)[C@H]3CC[C@]12C)OS(=O)(=O)O (single isomer, unassigned) [squalamine (ENT-01), squalamine]
CSBM, weekly average (mean, SD) [1]: 3.8 CSBM/week and 3.8 (2.40) CSBM/week
PAC-SYM (mean, SD) [1]: 1.1 (0.49)
Suppository use / rescue medication, weekly average (mean, SD) [1]: 0.3 /week
Consistency, Bristol stool scale 1-7 (mean, SD) ([1]; listed as aminosterol): 4.1
Ease of passage, Ease of evacuation scale (mean, SD) ([1]; listed as aminosterol): 3.7
formation of aggregates of αS (αS): inhibit the formation of aggregates of αS
Abdominal pain, Mild [2]: 2(20) n, %
Abdominal pain, Moderate [2]: 3(30) n, %
Blood in urine, Moderate [2]: 0 n, %
Diarrhea, Mild [2]: 1(10) n, %
Diarrhea, Moderate [2]: 3(30) n, %
Diarrhea, Severe [2]: 0 n, %
Difficulty falling asleep, Mild [2]: 0 n, %
Difficulty falling asleep, Moderate [2]: 0 n, %
Dizziness, Mild [2]: 0 n, %
Dizziness, Moderate [2]: 0 n, %
Eye infection, Mild [2]: 0 n, %
Eye infection, Moderate [2]: 0 n, %
Flatulence, Mild [2]: 2(20) n, %
Flatulence, Moderate [2]: 0 n, %
Headache, Mild [2]: 1(10) n, %
Headache, Moderate [2]: 0 n, %
Increased urinary frequency, Mild [2]: 0 n, %
Increased urinary frequency, Moderate [2]: 0 n, %
Loss of appetite, Moderate [2]: 0 n, %
Lower GI bleed, Severe [2]: 0 n, %
Nausea, Mild [2]: 4(40) n, %
Nausea, Moderate [2]: 0 n, %
Skin lesions-rash, Mild [2]: 0 n, %
Skin lesions-rash, Moderate [2]: 0 n, %
Urinary retention, Mild [2]: 0 n, %
Urinary retention, Moderate [2]: 0 n, %
Urinary tract infection, Mild [2]: 0 n, %
Urinary tract infection, Moderate [2]: 0 n, %
Vomiting, Mild [2]: 1(10) n, %
Vomiting, Moderate [2]: 0 n, %
Worsening acid reflux, Mild [2]: 0 n, %
Worsening acid reflux, Moderate [2]: 0 n, %
Worsening hemorrhoid, Mild [2]: 0 n, %
Worsening hemorrhoid, Moderate [2]: 0 n, %
Blood in urine, Mild ([2]; unrelated to ENT-01): 1(10) n, %
Loss of appetite, Mild ([2]; unrelated to ENT-01): 1(10) n, %
